Assays:
recombinant human PGHS-2 = molecular target: T1, recombinant human PGHS-2 (Homo sapiens, UniProt P35354); assay: Inhibition of prostaglandin biosynthesis in recombinant human PGHS-2 enzyme assay (PGE2 by EIA); format: biochemical
T1 construct: made in house; host or cells: baculovirus/Sf9 insect cells (microsomes)
T1 sequence (P35354 18-604): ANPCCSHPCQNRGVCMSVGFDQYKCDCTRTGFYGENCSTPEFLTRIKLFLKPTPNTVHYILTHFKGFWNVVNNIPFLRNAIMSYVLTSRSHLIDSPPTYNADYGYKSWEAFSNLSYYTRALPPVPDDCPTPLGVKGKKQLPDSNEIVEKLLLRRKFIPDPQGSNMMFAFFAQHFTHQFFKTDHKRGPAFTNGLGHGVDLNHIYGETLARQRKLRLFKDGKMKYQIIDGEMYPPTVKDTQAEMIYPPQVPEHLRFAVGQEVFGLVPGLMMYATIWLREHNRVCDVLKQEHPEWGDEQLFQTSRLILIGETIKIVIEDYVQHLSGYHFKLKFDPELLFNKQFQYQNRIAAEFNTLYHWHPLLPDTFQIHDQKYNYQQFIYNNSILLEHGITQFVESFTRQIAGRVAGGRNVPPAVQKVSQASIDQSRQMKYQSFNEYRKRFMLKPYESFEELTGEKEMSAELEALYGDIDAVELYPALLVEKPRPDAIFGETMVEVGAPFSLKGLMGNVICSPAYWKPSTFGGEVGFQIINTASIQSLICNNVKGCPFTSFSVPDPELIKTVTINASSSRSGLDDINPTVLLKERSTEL
Description: (§1) Inhibition of prostaglandin biosynthesis was evaluated in recombinant human PGHS-1 and PGHS-2 enzyme assays. Representative compounds dissolved in DMSO (3.3% v/v) were preincubated with microsomes from recombinant human PGHS-1 or PGHS-2 expressed in the baculovirus/Sf9 cell system (Gierse, J. K., Hauser, S. D., Creely, D. P., Koboldt, C., Rangwala, S., H., Isakson, P. C., and Seibert, K. Expression and selective inhibition of the constituitive and inducible forms of cyclooxygenase Biochem J. 1995, 305: 479.), together with the cofactors phenol (2 mM) and hematin (1 μM) for 60 minutes prior to the addition of 10 μM arachidonic acid. The reaction was allowed to run for 2.5 minutes at room temperature prior to quenching with HCl and neutralization with NaOH. PGE2 production in the presence and absence of the drug was determined by EIA analysis. The EIA was conducted in 96 well microtiter plates (Nunc Roskilde, Denmark) and optical density measured using a microplate reader (Vmax, Molecular Devices Corp., Menlo Park, Calif.). EIA reagents for prostaglandin determination were purchased from Perseptive Diagnostics, Cambridge, Mass. PGE2 levels were measured against standards prepared in the same milieu. The immunoassays were conducted as recommended by the manufacturer.

recombinant human PGHS-1 = molecular target: T2, recombinant human PGHS-1 (Homo sapiens, UniProt P23219); assay: Inhibition of prostaglandin biosynthesis in recombinant human PGHS-1 enzyme assay (PGE2 by EIA); format: biochemical
T2 construct: made in house; host or cells: baculovirus/Sf9 insect cells (microsomes)
T2 sequence (P23219 24-599): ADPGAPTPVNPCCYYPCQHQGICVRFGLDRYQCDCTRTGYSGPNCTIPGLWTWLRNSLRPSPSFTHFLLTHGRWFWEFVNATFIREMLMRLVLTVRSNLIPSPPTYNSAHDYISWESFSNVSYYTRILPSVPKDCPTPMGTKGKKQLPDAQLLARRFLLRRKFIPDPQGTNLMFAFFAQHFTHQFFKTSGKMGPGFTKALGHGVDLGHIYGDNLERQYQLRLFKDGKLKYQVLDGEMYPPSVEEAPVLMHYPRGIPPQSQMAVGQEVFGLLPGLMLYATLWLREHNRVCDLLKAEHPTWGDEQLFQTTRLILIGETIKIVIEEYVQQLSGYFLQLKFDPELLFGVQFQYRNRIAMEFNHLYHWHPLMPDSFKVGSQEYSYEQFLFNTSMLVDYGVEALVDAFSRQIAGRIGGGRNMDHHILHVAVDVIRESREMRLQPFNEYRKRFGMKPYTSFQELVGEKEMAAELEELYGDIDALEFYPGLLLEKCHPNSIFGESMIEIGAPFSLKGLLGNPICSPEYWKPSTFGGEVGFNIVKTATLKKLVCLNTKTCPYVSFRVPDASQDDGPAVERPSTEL
Description: as §1

PGHS-1 = details: background statement; cited from earlier work
PGHS-2 = details: background statement; cited from earlier work

Structure (SMILES)	inhibition of PGHS-1 (PGHS-1)	inhibition of PGHS-2 (PGHS-2)	other results
COc1ccc2c(c1)c(CC=NOCC(=O)OCC(O)CO)c(C)n2C(=O)c1ccc(Cl)cc1 (racemic) [Example 3, (4-chlorobenzoyl-5-methoxy-2-methylindol-3-yl) acetaldehyde-.omicron.-4-(2.3-dihydroxypropyloxycarbonylmethyl) oxime]			inhibition at 0.1 µM (recombinant human PGHS-2; @ 0.1 μM, human recombinant PGHS-2, read-out: PGHS-2 % inhibition (printed in PGHS-2 IC50 column)): 70%; inhibition at 1 µM (recombinant human PGHS-1; @ 1 μM, human recombinant PGHS-1, read-out: PGHS-1 % inhibition (printed in PGHS-1 IC50 column)): 41%
COc1ccc2c(c1)c(CC=NOCC(=O)O)c(C)n2C(=O)c1ccc(Cl)cc1 [Example 1, (4-chlorobenzoyl-5-methoxy-2-methylindol-3-yl) acetaldehyde-.omicron.-carboxymethyl oxime]			IC50 (recombinant human PGHS-2): 730 nM
COc1ccc2c(c1)c(CC=NOCC(=O)OCC1COC(C)(C)O1)c(C)n2C(=O)c1ccc(Cl)cc1 (stereo not shown) [Example 2, (4-chlorobenzoyl-5-methoxy-2-methylindol-3-yl) acetaldehyde-.omicron.-4-(2.2-dimethyldioxanylmethyloxycarbonylmethyl) oxime]			IC50 (recombinant human PGHS-2): 3 nM; IC50 (recombinant human PGHS-1): 90 nM
COc1ccc2c(c1)c(CC(=O)O)c(C)n2C(=O)c1ccc(Cl)cc1 [Indomethacin]	inhibit both PGHS-1 and PGHS-2	inhibit both PGHS-1 and PGHS-2	
CC(C)Cc1ccc(C(C)C(=O)O)cc1 (stereo not shown) [ibuprofen]	inhibit both isozymes	inhibit both isozymes	
COc1ccc2cc([C@H](C)C(=O)O)ccc2c1 [naproxen]	inhibit both isozymes	inhibit both isozymes	
CC1=C(CC(=O)O)c2cc(F)ccc2/C1=C\c1ccc([S+](C)[O-])cc1 (stereo not shown) [sulindac]	inhibit both PGHS-1 and PGHS-2	inhibit both PGHS-1 and PGHS-2	
